Drawing on patent US20250127789A1, “COMPOSITIONS USEFUL FOR MODULATING SPLICING” (SKYHAWK THERAPEUTICS, INC., priority 2021, published 2025), this text covers EC50 and IC50 for four compounds.

The test system of assay [1] is ATXN3 exon 4 skipped transcripts in SK-N-MC cells. As to the kind of experiment: ATXN3 quantitative splicing assay (qPCR of exon 4 skipped transcripts). The format is cell-based. The following applies: Human neuroblastoma SK-N-MC cells, 24 h treatment, read-out: ATXN 3 E4 Skipping EC50. The procedure: Human neuroblastoma SK-N-MC cells were plated in 384-well plates at 20,000 cells/well. Twenty-four hours after plating, cells were treated with compounds for 24 hat appropriate concentrations ranging from 30 µM to 0.6 nM (0.3% DMSO). Treated cells were lysed in 15 μL of lysis buffer, and cDNA was synthesized using the Fast Advanced Cells-to-Ct kit Two μL of each cDNA was used in PCR reactions to confirm the exon 4 skipped transcripts of ATXN3. A second set of primers/probe E4E5 was used to detect the transcripts containing exon 4. The third set of primers/probe E8E9 was used to detect total gene level of ATXN3. The qPCR reactions were prepared in 384-well plates in 10 μL volume, using TaqMan™ Fast Advanced Master Mix with primers and probes shown in the table below. Reactions were run in a Quant Studio 6 qPCR instrument with default settings.
The primers and probes are listed below in Table 3.
A general note: In qPCR the cycle at which signal appears reflects the starting amount.

Assay [2] deals with total ATXN3 protein in SK-N-MC cells. The assay can be described thus: ATXN3 total protein assay (MSD). The class given is cell-based. The conditions noted are these: Human neuroblastoma SK-N-MC cells, 48 hours incubation, read-out: ATXN3 Protein Potency IC50. On the procedure: Human neuroblastoma SK-N-MC cells were seeded at 10,000 cells/well in 384 well plates one day prior to compound treatment. The concentrations of compounds were tested at appropriate doses ranging from 30 μM to 0.6 nM. After incubation for 48 hours, the cells were lysed with 25 μL of lysis buffer containing protease inhibitors, and total ATXN3 protein levels were assessed by Mesoscale Discovery (MSD) assay developed with one pair of anti-ATXN3 antibodies. The capture and detect antibodies were raised in mouse and rabbit respectively. Anti-rabbit MSD-ST antibody was used for secondary antibody.
ATXN3 recombinant protein was used for standards. The readouts were captured with 35 μL of MSD read buffer and multi-array 384-well high binding plates.

By EC50 is commonly meant the concentration that produces a half-maximal response. In general, IC50 refers to the concentration that gives 50% inhibition. Consider `Cc1c(C[C@H](C)N)sc2c(NCc3ccccc3)nnnc12` [Compound 2, (S)-6-(2-aminopropyl)-N-benzyl-7-methylthieno[3,2-d][1,2,3]triazin-4-amine], for which, in assay [1], the EC50 was ≥ 10 µM. Besides, the IC50 in assay [2] was ≥ 10 µM.

On to `Cc1c(C[C@H](C)N)sc2c(NCc3ccncc3)nnnc12` [Compound 4, (S)-6-(2-aminopropyl)-7-methyl-N-(pyridin-4-ylmethyl)thieno[3,2-d][1,2,3]triazin-4-amine], for which, in assay [1], the EC50 was in the range of 0.501 to 5 µM. Besides, the half-inhibitory concentration (IC50) in assay [2] was in the range of 0.501 to 5 µM.

In the case of `Cc1csc2c(NCc3ccccc3)nnnc12` [Compound 1, N-benzyl-7-methylthieno[3,2-d][1,2,3]triazin-4-amine], the EC50 in assay [1] is ≥ 10 µM. For the same compound, in assay [2], the IC50 is ≥ 10 µM.

`Cc1csc2c(NCc3ccncc3)nnnc12` [Compound 3, 7-methyl-N-(pyridin-4-ylmethyl)thieno[3,2-d][1,2,3]triazin-4-amine]: the EC50 in assay [1] is ≥ 10 µM. For the same compound, in assay [2], the 50% inhibitory concentration (IC50) is ≥ 10 µM.
